Data taken from patent publication US20250145633A1, “SUBSTITUTED FURANOPYRIMIDINE COMPOUNDS AS PDE1 INHIBITORS” (Dart NeuroScience, LLC, priority 2017, published 2025).

Biological target: human PDE1B enzyme (Homo sapiens (Human), UniProt Q01064)
Assay: IMAP TR-FRET PDE1B enzymatic assay
Format: biochemical
Details: negative log of half-maximal molar inhibitory concentration; 200 nM FAM-cAMP; values given as bins
Procedure: PDE1B inhibition was determined by an IMAP TR-FRET assay. The IMAP TR-FRET PDE assay was optimized for concentration of enzyme, Calmodulin, cAMP or cGMP substrate, DMSO tolerance, and incubation time.
Into each well of a solid white 1536 well plate (Corning) was dispensed 250 pg full-length recombinant NH-terminal GST tagged human PDE1B enzyme (BPS Bioscience Cat #60011, San Diego, CA) in 2.5 μL IMAP BSA reaction buffer (Molecular Devices, Sunnyvale, CA) containing 10 U/ml Calmodulin and 2.5 mM CaCl2) (Sigma Aldrich.) After a brief centrifugation, 30 nL of compound was added by transfer from 1 mM stock in DMSO using a Kalypsys 1536 Pintool. Plates were incubated for 5 minutes at room temperature before dispensing 1.5 μL of 533 nM 5-carboxy fluorescein (FAM)-labeled cAMP (Molecular Devices, Sunnyvale, CA) for a final concentration of 200 nM. After a brief centrifugation, the plates were incubated for 30 minutes at room temperature. The assay was terminated by adding 5 μL IMAP binding reagent/Tb complex (Molecular Devices, Sunnyvale, CA) to each well.
Plates were incubated for 1 hour at room temperature and were read on a Viewlux multimode plate reader (Perkin Elmer). The instrument was set to excite using the DUG11 filter and measure using 490/10 nm and 520/10 nm filters. Ratios of acceptor and donor were then calculated.
For IC50 calculations, the values of % efficacy versus a series of compound concentrations were then plotted using non-linear regression analysis of sigmoidal dose-response curves generated with the equation Y=[B+(T−B)]/[1+10((Log EC50−X)×Hill Slope)], where Y=percent activity, B=minimum percent efficacy, T=maximum percent efficacy, X=logarithm of compound and Hill Slope=slope factor or Hill coefficient. The IC50 value was determined by the concentration causing a half-maximal percent efficacy.

Compound	PDE1b (pIC50)
Cc1oc2ncnc(NC3(C)CC3)c2c1C(=O)N1CCc2c(ncnc2OCC(C)C)C1 [Example 807, 6-Methyl-N-(1-methylcyclopropyl)-5-[4-(2-methylpropoxy)-5H,6H,7H,8H-pyrido[3,4-d]pyrimidine-7-carbonyl]furo[2,3-d]pyrimidin-4-amine]	>8
Cc1oc2ncnc(NC3(C)CC3)c2c1C(=O)N1CCc2c(OCF)ccnc2C1 [Example 763, 5-[4-(Fluoromethoxy)-5,6,7,8-tetrahydro-1,7-naphthyridine-7-carbonyl]-6-methyl-N-(1-methylcyclopropyl)furo[2,3-d]pyrimidin-4-amine]	>8
Cc1oc2ncnc(NC3(C)CC3)c2c1C(=O)N1CCC(c2ccnc(F)c2)C1 (stereo not shown) [Example 21, 5-[3-(2-Fluoropyridin-4-yl)pyrrolidine-1-carbonyl]-6-methyl-N-(1-methylcyclopropyl)furo[2,3-d]pyrimidin-4-amine]	>8
Cc1oc2ncnc(NC3(C)CC3)c2c1C(=O)NCc1cccc(F)c1 [Example 217, N-[(3-Fluorophenyl)methyl]-6-methyl-4-[(1-methylcyclopropyl)amino]furo[2,3-d]pyrimidine-5-carboxamide]	>8
COc1ccc(C2=CCN(C(=O)c3c(C)oc4ncnc(NC5(C)CC5)c34)CC2)nc1 [Example 785, 5-[4-(5-Methoxypyridin-2-yl)-1,2,3,6-tetrahydropyridine-1-carbonyl]-6-methyl-N-(1-methylcyclopropyl)furo[2,3-d]pyrimidin-4-amine]	>8

Same assay, conditions: negative log of half-maximal molar inhibitory concentration; 200 nM FAM-cAMP; values given as bins; read-out: PDE1b (pIC50) (converted)

Compound	IC50 [nM]
Cc1oc2ncnc(NC3(C)CC3)c2c1C(=O)N1CC=C(c2ncc(F)cn2)CC1 [Example 15, 5-[4-(5-Fluoropyrimidin-2-yl)-1,2,3,6-tetrahydropyridine-1-carbonyl]-6-methyl-N-(1-methylcyclopropyl)furo[2,3-d]pyrimidin-4-amine]	10 to 100
Cc1nn(C(=O)c2c(C)oc3ncnc(NC4(C)CC4)c23)c(C)c1C [Example 409, 6-Methyl-N-(1-methylcyclopropyl)-5-(trimethyl-1H-pyrazole-1-carbonyl)furo[2,3-d]pyrimidin-4-amine]	10 to 100
Cc1oc2ncnc(NC3(C)CC3)c2c1C(=O)N1CCc2nc(Cl)ccc2C1 [Example 287, 5-(2-Chloro-5,6,7,8-tetrahydro-1,6-naphthyridine-6-carbonyl)-6-methyl-N-(1-methylcyclopropyl)furo[2,3-d]pyrimidin-4-amine]	10 to 100
Cc1oc2ncnc(NC3(C)CC3)c2c1C(=O)N1CCn2nccc2C1 [Example 683, 6-Methyl-N-(1-methylcyclopropyl)-5-{4H,5H,6H,7H-pyrazolo[1,5-a]pyrazine-5-carbonyl}furo[2,3-d]pyrimidin-4-amine]	10 to 100
Cc1oc2ncnc(NC3(C)CC3)c2c1C(=O)NCc1ccccc1F [Example 218, N-[(2-Fluorophenyl)methyl]-6-methyl-4-[(1-methylcyclopropyl)amino]furo[2,3-d]pyrimidine-5-carboxamide]	10 to 100
Cc1ncc(CNC(=O)c2c(C)oc3ncnc(NC4(C)CC4)c23)o1 [Example 744, 6-Methyl-N-[(2-methyl-1,3-oxazol-5-yl)methyl]-4-[(1-methylcyclopropyl)amino]furo[2,3-d]pyrimidine-5-carboxamide]	10 to 100
Cc1oc2ncnc(NC3(C)CC3)c2c1C(=O)NCc1cccc(N2CCOCC2)n1 [Example 737, 6-Methyl-4-[(1-methylcyclopropyl)amino]-N-{[6-(morpholin-4-yl)pyridin-2-yl]methyl}furo[2,3-d]pyrimidine-5-carboxamide]	10 to 100
Cc1oc2ncnc(NC3(C)CC3)c2c1C(=O)N1Cc2cc(Br)cnc2C1 [Example 742, 5-{3-Bromo-5H,6H,7H-pyrrolo[3,4-b]pyridine-6-carbonyl}-6-methyl-N-(1-methylcyclopropyl)furo[2,3-d]pyrimidin-4-amine]	10 to 100
